Results as given in PMC6806261, “Modified Peptide YY Molecule Attenuates the Activity of NPY/AgRP Neurons and Reduces Food Intake in Male Mice” (Endocrinology, 2019).
Where no end group is shown, it is not given here.

Experiments:
[1] = test system: Agrp-cre::hM3Dq-mCherry mice; assay: DREADD (hM3Dq/CNO)-stimulated feeding; format: in vivo, mouse
Procedure: For surgery, mice (8 to 12 weeks) were anesthetized with isoflurane (1 L/min O2 with 2% isoflurane). Following surgery, all mice received 0.03 mg/kg buprenorphine (Buprenex, Reckitt Benckiser, Slough, UK) and were allowed a minimum of 1 week to recover before treatment started. DIO mice received subcutaneous implants of an Alzet 2002 osmotic minipump (Durect, Cupertino, CA). All of the DIO mice experienced a small reduction in body weight following implantation of the minipump. For experiments using designer receptors exclusively activated by designer drugs (DREADDs), AgRP-cre mice received bilateral injections of AAV2-hSyn-DIO-hM3Dq-mCherry (UNC Vector Core, Chapel Hill, NC) ([35]) into the arcuate nucleus (3 × 23 nL per side), using the following coordinates relative to Bregma, according to Paxinos and Franklin ([36]): anterior, −1.5 mm; lateral, ±0.30 mm; and ventral, −6.2 mm. Subsequently, the DREADDs were activated by IP injection of the designer drug, clozapine N-oxide (CNO; Sigma-Aldrich, St. Louis, MO) at 1 mg/kg.

human Y1 receptor = settings: ref [9] Østergaard et al., read-out: binding inhibitory constant (Ki), Y1 receptor; cited from earlier work
Description: (§1) PYY3-36 and ghrelin were purchased from Bachem (Bubendorf, Switzerland). NNC0165-1273 was identified from a series of modified PYY peptides and synthesized with the aim of increased selectivity for Y2 receptors vs the other Y receptors [peptide no. 29 in Østergaard et al. ([9])].

human Y5 receptor = settings: ref [9] Østergaard et al., read-out: binding inhibitory constant (Ki), Y5 receptor; cited from earlier work
Description: as §1

human Y4 receptor = settings: ref [9] Østergaard et al., read-out: binding inhibitory constant (Ki), Y4 receptor; cited from earlier work
Description: as §1

human Y2 receptor = settings: same binding assays for both peptides, ref [9] Østergaard et al., read-out: binding inhibitory constant (Ki), Y2 receptor; cited from earlier work
Description: as §1

[2] = cited from earlier work
Description: as §1

NPY/AgRP neurons = assay: cFos immunohistochemistry in arcuate NPY/AgRP neurons; format: in vivo, mouse
Procedure: Mice were transcardially perfused with chilled 0.9% NaCl followed by 4% paraformaldehyde in 0.1M phosphate buffer (Sigma-Aldrich). Whole brains were postfixed overnight and then dehydrated in 30% sucrose solution. Brains were flash frozen on dry ice, and then 30 µm sections were collected using a freezing sledge microtome and transferred to 0.1M phosphate buffer.
For chromogenic visualization of cFos, free-floating sections were incubated sequentially in rabbit anit-cFos primary [1:1000; SC-52; Santa Cruz, Dallas, TX ([37])], biotinylated goat anit-rabbit secondary [1:500; BA-1000; Vector Laboratories, Cambridge, UK ([38])], and streptavidin-biotin-peroxidase complex (1:500; RPN1051; GE Healthcare, Chicago, IL). This was combined with fluorescence staining for GFP or mCherry reporters; this required coincubation of sections with chicken anit-GFP [1:1000; 13970; Abcam, Cambridge, UK ([39])] followed by donkey anit-chicken^ALEXA 488 [1:1000; 703-545-155, Jackson ImmunoResearch, West Grove, PA ([40])], or with rabbit anti-DsRed [1:1000, 632396, Clontech, CA ([41])] followed by donkey […]^ALEXA 594 [1:1000; 705-585-147; Jackson ImmunoResearch, ([42])]. Sections were mounted on slides before imaging on an Olympus BX51 upright microscope. Images were processed and analyzed using open-source FIJI software.

mice [3] = assay: Normal nighttime feeding after SC injection; format: in vivo, mouse; settings: serial dilution, food intake after 2 hours
Procedure: (§2) For acute experiments, mice were acclimated to handling for 2 weeks and housed singly with free access to food at least 4 days before experiments. Nighttime injections of NNC0165-1273 were given subcutaneously (SC) 30 minutes before start of “dark phase,” and food intake was measured 1, 2, 4, and 14 hours later. Daytime feeding experiments commenced 4 hours into the “light phase” [Zeitgeber time (ZT) 4]; injections of ghrelin (2 mg/kg, IP) and NNC0165-1273/PYY3-36 (various doses, SC) were given concomitantly, and food intake measured at 1, 2, 4, and 24 hours later.

mice [4] = assay: Ghrelin-induced daytime feeding; format: in vivo, mouse; settings: 2 mg/kg IP, light phase, fed mice
Procedure: as §2

[5] = test system: arcuate NPY/AgRP neurons (Npy-hrGFP); assay: Current clamp patch electrophysiology in brain slices; format: cell-based, mouse; settings: 50 nM bath application; results not shown
Procedure: Npy-hrGFP mice were euthanized by decapitation, and the brains rapidly removed and sliced on a vibratome (Campden Instruments, Loughborough, UK) in ice-cold oxygenated incubation artificial cerebrospinal fluid (aCSF) containing (mM): 95 NaCl, 1.8 KCl, 1.2 KH2PO4, 7 MgSO4, 26 NaHCO3, 0.5 CaCl2, 15 glucose, and 50 sucrose. Slices were perfused with room temperature recording aCSF containing (mM): 127 NaCl, 1.8 KCl, 1.2 KH2PO4, 1.3 MgSO4, 26 NaHCO3, 2.4 CaCl2, and 5 glucose. Npy-hrGFP neurons were visualized in 250-µm slices using an Olympus BX51 with inbuilt infrared video-enhanced differential interference contrast optics and GFP fluorescence optics. Neurons were patched using 7 to 10 MΩ pipettes containing (mM): 130 K-gluconate, 10 KCl, 2 MgCl2, 10 HEPES, 0.5 EGTA, 2 K2ATP, and 0.5 NaGTP. Data were recorded on an Axoclamp 2A amplifier in bridge mode (Molecular Devices, San Jose, CA) and a CED 1401 A/D data acquisition interface (CED, Cambridge, UK) to give current clamp data at 30 kHz sampling frequency. NNC0165-1273 (Novo Nordisk, Maaloev, Denmark) was diluted in aCSF to a concentration of 50 nM and applied to perfusion chamber through a gravity-driven system. Effects were sampled with no current manipulations. All applications were timed for 3 to 5 minutes and perfusion flow was maintained at standard 1 to 2 mL/min^−1.

## C[N+]1([O-])CCN(C2=Nc3cc(Cl)ccc3Nc3ccccc32)CC1 [CNO, clozapine N-oxide]
[1]; single IP injection 1 mg/kg, vs saline
  food intake in Agrp-cre::hM3Dq-mCherry mice: substantial increase in food intake
[1]; wild-type mice, results not shown
  food intake in wild-type mice: do not respond

## PYY3-36: truncated major circulating form of gut hormone peptide YY; purchased from Bachem
Human Y1 receptor
  Ki: 40 nM
Human Y5 receptor
  Ki: 3.2 nM
Human Y4 receptor
  Ki: 13 nM
Human Y2 receptor
  Ki: 0.4 nM
[2]
  half-life in pig plasma: 3.33 h
NPY/AgRP neurons; pretreatment before ghrelin 2 mg/kg, perfused 90 minutes after ghrelin, Npy-hrGFP mice
  ghrelin-induced activation (cFos) of NPY/Agrp neurons: blocked
Mice [3]
  threshold dose needed to inhibit nighttime feeding: 0.04 µmol/kg

## ghrelin: orexigenic peptide purchased from Bachem, used to induce feeding and activate NPY/AgRP neurons (GSSFLSPEHQRVQQRKESKKPPAKLQPR; ends and bridges not checked; UniProt Q9UBU3 24-51, looked up)
NPY/AgRP neurons; ghrelin 2 mg/kg, 90 minutes after injection
  cFos expression in the arcuate nucleus, notably NPY-hrGFP neurons: substantial increase
Mice [4]
  food intake after ghrelin alone: substantial increase in food intake
[5]
  resting membrane potential of NPY/AgRP neurons: increase in the resting membrane potential
